test system: IL-6 production in human corneal epithelium cell line (HCE-T); test: IL-6 production inhibitory action evaluation test after LPS stimulation; assay type: cell-based; conditions: 4 hours, 100 μM test compound solution 10 μL/well, DEX treated group = 100
Procedure: To evaluate the action of the present compounds as a GR agonist, IL-6 production inhibitory action in human corneal epithelial cell line after LPS stimulation was examined The IL-6 production was measured by using the HTRF method (Cat No. 62IL6PEB manufactured by Cisbio Bioassays, Inc.) according to the attached protocol. The specific method is described below.
LPS solution: After dissolving LPS in PBS(−), the resulting solution was diluted with a culture solution, whereby an LPS solution with a 1 μg/mL concentration was prepared.
After dissolving the test compound in dimethylsulfoxide, the solution was diluted with a 10% FBS-DMEM/Ham's F12 medium, whereby a 100 μM of the test compound solution was prepared. […] In addition, DEX was similarly dissolved, whereby a 100 μM concentration of the DEX solution was prepared, and an IL-6 production inhibitory ratio of DEX was measured, and used for calculation of Efficacy (% DEX).
Used cells: human corneal epithelium cell line (HCE-T) (RIKEN, Institute of Physical and Chemical Research)
The cells continued to subculture according to this method were used for the test.
(Calculation of IL-6 Production Inhibitory Ratio)
The IL-6 production inhibitory ratio (%) was calculated by the following formula. IL-6 production inhibitory ratio (%)=100×{1−(IL-6 produced amount of each test compound solution−average value of IL-6 produced amount of negative control group)/(average value of IL-6 produced amount of positive control group−average value of IL-6 produced amount of negative control group)}(%)
Further, the IL-6 production inhibitory ratio (Efficacy (% DEX)) when the DEX treated group was made 100 was calculated. Efficacy (% DEX)=100×{(average value of IL-6 production inhibitory ratio of each test compound solution)/(average value of IL-6 production inhibitory ratio of DEX treated group)}(%)
In addition, IC50 was calculated according to a conventional method. IDBS XLfit4 was used for the calculation.

| Compound | IL-6 production inhibitory ratio (% DEX) |
| --- | --- |
| COc1cc(OCC(O)CC(=O)OC(C)(C)C)ccc1-c1ccc2c(c1COc1cc(F)ccc1C)N(C)C(=O)C(C)(C)N2 (stereo not drawn) [Compound 7-2, 7-[4-(3-t-butoxycarbonyl-2-hydroxypropyl)oxy-2-methoxyphenyl]-8-(5-fluoro-2-methylphenoxymethyl)-1,3,3-trimethyl-3,4-dihydro-1H-quinoxalin-2-one] | >99 % DEX |
| CC[C@@H](O)COc1ccc(-c2ccc3c(c2COc2cc(F)ccc2C)N(C)C(=O)C(C)(C)N3)c(OC)c1 [Compound 1-4, (R)-8-(5-fluoro-2-methylphenoxymethyl)-7-[4-(2-hydroxybutyl)oxy-2-methoxyphenyl]-1,3,3-trimethyl-3,4-dihydro-1H-quinoxalin-2-one] | 92 % DEX |
| COc1cc(OC[C@@H](O)CC#N)ccc1-c1ccc2c(c1COc1cc(F)ccc1C)N(C)C(=O)C(C)(C)N2 [Compound 5-2, (S)-7-[4-(3-cyano-2-hydroxypropyl)oxy-2-methoxyphenyl]-8-(5-fluoro-2-methyl-phenoxymethyl)-1,3,3-trimethyl-3,4-dihydro-1H-quinoxalin-2-one] | >99 % DEX |
| COc1ccc(O)cc1-c1ccc2c(c1COc1cc(F)ccc1C)N(C)C(=O)C(C)(C)N2 [Control compound C, 8-(5-fluoro-2-methylphenoxymethyl)-7-(5-hydroxy-2-methoxyphenyl)-1,3,3-trimethyl-3,4-dihydro-1H-quinoxalin-2-one, reference compound] | 71 % DEX |
| COc1cc(OC[C@H](O)CC#N)ccc1-c1ccc2c(c1COc1cc(F)ccc1C)N(C)C(=O)C(C)(C)N2 [Compound 5-1, (R)-7-[4-(3-cyano-2-hydroxypropyl)oxy-2-methoxyphenyl]-8-(5-fluoro-2-methyl-phenoxymethyl)-1,3,3-trimethyl-3,4-dihydro-1H-quinoxalin-2-one] | 98 % DEX |

target: Recombinant human GR (Homo sapiens (Human), UniProt P04150); test: GR binding activity evaluation test (GR competitive binding assay, fluorescence polarization); conditions: 20 μM test compound solution, 10 μL/well; 2 mM DEX as positive control; 2 hours at room temperature
Sequence (P04150 whole entry): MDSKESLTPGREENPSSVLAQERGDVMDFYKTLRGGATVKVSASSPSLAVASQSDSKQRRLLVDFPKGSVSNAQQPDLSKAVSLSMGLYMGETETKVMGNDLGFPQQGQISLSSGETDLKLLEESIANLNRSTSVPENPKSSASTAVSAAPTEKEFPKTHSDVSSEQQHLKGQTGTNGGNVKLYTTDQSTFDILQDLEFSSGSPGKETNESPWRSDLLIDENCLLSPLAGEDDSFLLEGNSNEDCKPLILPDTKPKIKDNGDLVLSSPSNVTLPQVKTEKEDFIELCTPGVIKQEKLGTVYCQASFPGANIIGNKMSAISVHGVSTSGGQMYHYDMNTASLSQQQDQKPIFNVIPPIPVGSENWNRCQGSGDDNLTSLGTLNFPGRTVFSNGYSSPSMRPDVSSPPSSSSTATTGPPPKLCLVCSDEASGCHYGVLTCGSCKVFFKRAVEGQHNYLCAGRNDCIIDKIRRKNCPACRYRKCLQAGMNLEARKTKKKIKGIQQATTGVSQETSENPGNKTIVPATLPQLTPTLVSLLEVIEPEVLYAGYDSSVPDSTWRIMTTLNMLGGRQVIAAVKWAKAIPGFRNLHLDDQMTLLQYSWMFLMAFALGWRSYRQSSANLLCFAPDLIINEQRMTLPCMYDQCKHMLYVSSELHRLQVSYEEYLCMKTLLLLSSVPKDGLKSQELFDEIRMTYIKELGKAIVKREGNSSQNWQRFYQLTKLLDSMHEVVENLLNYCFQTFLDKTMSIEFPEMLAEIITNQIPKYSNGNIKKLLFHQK
Procedure: In order to evaluate a binding activity of the present compound to GR, a GR receptor competitor assay was carried out by a fluorescence polarization method. In the assay, a GR competitive binding assay kit (manufactured by Invitrogen, cat No. P2816) was used for the assay, and a procedure was carried out according to the protocol attached to the kit. Hereinafter, the specific method will be described.
GR screening buffer: A buffer containing 10 mM of potassium phosphate (pH 7.4), 20 mM of sodium molybdate (Na2MoO4), 0.1 mM of ethylene diamine tetraacetic acid (EDTA), 5 mM of dithiothreitol (DTT), 0.1 mM of stabilizing peptide and 2% of dimethylsulfoxide was prepared.
4×GS1 solution: Fluormone™ GS1, which is a fluorescent glucocorticoid ligand, was diluted with GR screening buffer, whereby a 4 nM solution was prepared. […]
5) The plate was incubated in a dark place at room temperature for 2 hours, and fluorescence polarization of each well was measured.
A GR binding ratio (%) was calculated from the following equation. GR binding ratio (%)=100×{1−(fluorescence polarization of test compound solution−average value of fluorescence polarization of positive control solution)/(average value of fluorescence polarization of negative control solution−average value of fluorescence polarization of positive control solution)} (Test Results and Discussion)

| Compound | GR binding rate (%) |
| --- | --- |
| COc1cc(OCC(O)CO)ccc1-c1ccc2c(c1COc1cc(F)ccc1C)N(C)C(=O)C(C)(C)N2 (stereo not drawn) [Compound 4-1, 7-[4-(2,3-dihydroxypropyl)oxy-2-methoxyphenyl]-8-(5-fluoro-2-methylphenoxymethyl)-1,3,3-trimethyl-3,4-dihydro-1H-quinoxalin-2-one] | >99% |

From patent publication US10435379B2, “[4-(1,3,3-trimethyl-2-OXO-3,4-dihydro-1H-quinoxalin-7-yl)phenoxy]ethyloxy compound or salt thereof” (SANTEN PHARMACEUTICAL CO., LTD., priority 2015, dated 2019)
